Assay results as given in ChEMBL document CHEMBL3621173, “Evaluation of functional groups as acetyl-lysine mimetics for BET bromodomain inhibition” (Medchemcomm, 2014).
The source made the active and inactive calls. The calls are words filed in the database; no cut-off is given here.

Legend:
[1] = target: Bromodomain-containing protein 2 (Homo sapiens) (UniProt P25440); experiment: Inhibition of BRD2 (D1) (unknown origin) at 5 uM incubated for 30 mins using histone H4 peptide (1-21) K5/8/12/16Ac-biotin by alpha screen assay
[2] = target: T1, Bromodomain-containing protein 4 (Homo sapiens, UniProt O60885); experiment: Inhibition of BRD4 (D1) (unknown origin) at 5 uM incubated for 30 mins using histone H4 peptide (1-21) K5/8/12/16Ac-biotin by alpha screen assay
[3] = target: T2, Bromodomain-containing protein 3 (Homo sapiens, UniProt Q15059); experiment: Inhibition of BRD3 (D1) (unknown origin) at 5 uM incubated for 30 mins using histone H4 peptide (1-21) K5/8/12/16Ac-biotin by alpha screen assay
Target sequence in this assay (Q15059 2-726 limits assumed): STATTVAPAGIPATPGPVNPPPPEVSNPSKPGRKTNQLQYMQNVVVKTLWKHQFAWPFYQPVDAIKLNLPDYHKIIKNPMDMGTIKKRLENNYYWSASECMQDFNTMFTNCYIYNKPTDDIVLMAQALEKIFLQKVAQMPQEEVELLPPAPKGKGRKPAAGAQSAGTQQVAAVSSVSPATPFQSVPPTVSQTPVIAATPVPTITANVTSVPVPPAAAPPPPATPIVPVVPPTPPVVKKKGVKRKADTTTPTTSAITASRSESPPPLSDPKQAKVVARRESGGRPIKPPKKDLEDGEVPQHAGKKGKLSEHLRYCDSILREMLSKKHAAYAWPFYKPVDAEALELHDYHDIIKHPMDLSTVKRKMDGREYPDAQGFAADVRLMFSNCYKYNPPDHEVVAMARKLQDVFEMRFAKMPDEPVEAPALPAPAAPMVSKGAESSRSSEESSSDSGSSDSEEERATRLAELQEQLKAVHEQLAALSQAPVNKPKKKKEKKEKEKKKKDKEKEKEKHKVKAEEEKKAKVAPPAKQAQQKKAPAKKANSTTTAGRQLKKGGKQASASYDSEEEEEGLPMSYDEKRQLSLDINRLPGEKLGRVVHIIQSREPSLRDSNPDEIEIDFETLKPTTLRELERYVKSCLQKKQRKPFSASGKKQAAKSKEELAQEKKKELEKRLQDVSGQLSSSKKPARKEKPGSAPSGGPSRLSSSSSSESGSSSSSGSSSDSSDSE

[4] = target: T2, Bromodomain-containing protein 3; experiment: Inhibition of BRD3 (D1) (unknown origin) incubated for 30 mins using histone H4 peptide (1-21) K5/8/12/16Ac-biotin by alpha screen assay
Target sequence in this assay (Q15059 whole entry): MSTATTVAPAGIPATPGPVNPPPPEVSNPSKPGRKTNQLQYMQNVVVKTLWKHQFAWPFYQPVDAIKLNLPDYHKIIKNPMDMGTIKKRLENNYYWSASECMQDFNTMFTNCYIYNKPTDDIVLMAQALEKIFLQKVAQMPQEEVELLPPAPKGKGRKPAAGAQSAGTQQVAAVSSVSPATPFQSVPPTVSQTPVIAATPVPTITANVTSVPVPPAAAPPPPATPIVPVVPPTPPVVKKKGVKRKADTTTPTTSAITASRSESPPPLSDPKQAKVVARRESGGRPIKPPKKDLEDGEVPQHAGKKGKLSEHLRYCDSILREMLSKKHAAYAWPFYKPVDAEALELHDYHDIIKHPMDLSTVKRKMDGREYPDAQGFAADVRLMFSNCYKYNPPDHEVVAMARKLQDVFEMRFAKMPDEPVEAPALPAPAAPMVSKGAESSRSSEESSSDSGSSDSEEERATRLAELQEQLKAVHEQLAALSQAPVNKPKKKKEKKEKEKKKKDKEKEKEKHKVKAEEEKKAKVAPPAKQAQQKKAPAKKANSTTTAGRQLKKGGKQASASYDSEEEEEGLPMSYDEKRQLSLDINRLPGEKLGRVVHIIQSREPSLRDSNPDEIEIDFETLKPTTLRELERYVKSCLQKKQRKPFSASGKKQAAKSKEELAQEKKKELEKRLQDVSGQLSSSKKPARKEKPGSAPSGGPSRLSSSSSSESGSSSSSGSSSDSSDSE

[5] = target: T1, Bromodomain-containing protein 4; experiment: Inhibition of BRD4 (D1) (unknown origin) incubated for 30 mins using histone H4 peptide (1-21) K5/8/12/16Ac-biotin by alpha screen assay
[6] = Degradation half-life in mouse liver microsomes; assay type: ADME
[7] = Intrinsic clearance in mouse liver microsomes; assay type: ADME; conditions: read-out: CLH
[8] = Intrinsic clearance in human liver microsomes; assay type: ADME; conditions: read-out: CLH
[9] = Intrinsic clearance in rat liver microsomes; assay type: ADME; conditions: read-out: CLH
[10] = Degradation half-life in human liver microsomes; assay type: ADME
[11] = Degradation half-life in rat liver microsomes; assay type: ADME

Bromodomain-containing protein 2 (Homo sapiens), sequence (P25440 whole entry, looked up): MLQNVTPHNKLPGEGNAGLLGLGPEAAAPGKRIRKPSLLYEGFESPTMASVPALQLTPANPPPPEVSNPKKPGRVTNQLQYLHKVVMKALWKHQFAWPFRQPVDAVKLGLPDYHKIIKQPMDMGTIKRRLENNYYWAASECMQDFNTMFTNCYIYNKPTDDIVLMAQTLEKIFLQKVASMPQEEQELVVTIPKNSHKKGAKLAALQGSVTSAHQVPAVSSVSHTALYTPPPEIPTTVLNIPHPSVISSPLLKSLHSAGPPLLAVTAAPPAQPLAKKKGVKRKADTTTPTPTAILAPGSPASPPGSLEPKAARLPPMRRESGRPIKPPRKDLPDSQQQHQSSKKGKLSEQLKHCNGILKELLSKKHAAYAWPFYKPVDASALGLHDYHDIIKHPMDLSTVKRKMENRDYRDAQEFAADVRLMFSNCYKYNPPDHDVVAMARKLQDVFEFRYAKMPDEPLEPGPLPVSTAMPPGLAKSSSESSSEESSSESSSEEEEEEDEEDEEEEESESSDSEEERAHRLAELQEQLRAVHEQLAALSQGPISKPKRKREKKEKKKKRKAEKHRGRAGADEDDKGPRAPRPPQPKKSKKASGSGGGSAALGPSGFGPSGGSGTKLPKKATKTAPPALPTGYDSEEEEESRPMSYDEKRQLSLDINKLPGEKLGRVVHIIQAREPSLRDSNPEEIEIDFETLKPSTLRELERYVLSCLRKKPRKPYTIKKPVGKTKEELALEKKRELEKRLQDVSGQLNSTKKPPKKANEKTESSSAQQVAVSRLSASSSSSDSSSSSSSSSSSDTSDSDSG

Row | Compound | inhibition [1] | inhibition [2] | inhibition [3] | also measured
1 | Cc1ccc(NS(C)(=O)=O)cc1S(=O)(=O)NC1CCCC1 | inactive | inactive | inactive | 
2 | COc1ccc(-c2c(C)noc2C)cc1S(=O)(=O)NC1CCCC1 | Active | Active | Active | IC50 [4]: 0.2 µM; IC50 [5]: 1.2 µM
3 | COc1ccc(-c2cccc(NC(C)=O)c2)cc1S(=O)(=O)NC1CCCC1 | inactive | inactive | inactive | 
4 | Cc1ccc(-n2cnnc2C)cc1S(=O)(=O)NC1CCCC1 | inactive | inactive | inactive | IC50 [4]: ≥ 10 µM; IC50 [5]: ≥ 10 µM
5 | COc1ccc(-c2ccncc2)cc1S(=O)(=O)NC1CCCC1 | inactive | inactive | inactive | 
6 | COc1ccc(-c2cnn(C)n2)cc1S(=O)(=O)NC1CCCC1 |  | Active |  | IC50 [4]: 10 µM; IC50 [5]: 4 µM
7 | COc1ccc(-c2cnc(N)nc2)cc1S(=O)(=O)NC1CCCC1 | inactive | inactive | inactive | 
8 | COc1ccc(-c2cc(N)ccc2C)cc1S(=O)(=O)NC1CCCC1 | inactive | inactive | inactive | 
9 | Cc1ccc(-c2nnnn2C)cc1S(=O)(=O)NC1CCCC1 | inactive | inactive | inactive | 
10 | COc1ccc(-c2ccc(N)cc2C)cc1S(=O)(=O)NC1CCCC1 | inactive | inactive | inactive | 
11 | COc1ccc(-c2cn[nH]c2)cc1S(=O)(=O)NC1CCCC1 | inactive | inactive | inactive | 
12 | CC(=O)Nc1ccc(C)c(S(=O)(=O)NC2CCCC2)c1 | inactive | inactive | inactive | 
13 | COc1ccc(-c2ccc(N)nc2C)cc1S(=O)(=O)NC1CCCC1 | Active | Active | Active | 
14 | COc1ccc(-c2ccccc2NS(C)(=O)=O)cc1S(=O)(=O)NC1CCCC1 | inactive | inactive | inactive | 
15 | Cc1nc(-c2ccc(C)c(S(=O)(=O)NC3CCCC3)c2)no1 | inactive | inactive | inactive | 
16 | COc1ccc(-c2cccnc2)cc1S(=O)(=O)NC1CCCC1 | inactive | inactive | inactive | 
17 | CC(=O)NCc1ccc(C)c(S(=O)(=O)NC2CCCC2)c1 | inactive | inactive | inactive | 

Row | Compound | inhibition [1] | inhibition [2] | inhibition [3] | also measured
18 | Cc1sc2c(c1C)C(c1ccc(Cl)cc1)=N[C@@H](CC(=O)OC(C)(C)C)c1nnc(C)n1-2 |  |  |  | half-life [6]: 0.117 h; microsomal CLint [7]: 166 µL/min/mg; microsomal CLint [8]: 136 µL/min/mg; microsomal CLint [9]: 129 µL/min/mg
19 | COc1ccc(-c2cn(C)nn2)cc1S(=O)(=O)NC1CCCC1 | inactive | inactive | inactive | 
20 | COc1ccc(-c2ccc(NC(C)=O)cc2)cc1S(=O)(=O)NC1CCCC1 | inactive | inactive | inactive | 
21 | COc1cc2c(cc1-c1c(C)noc1C)ncc1[nH]c(=O)n([C@H](C)c3ccccn3)c12 |  |  |  | half-life [6]: > 4.12 h; microsomal CLint [7]: < 7 µL/min/mg; half-life [10]: 3.9 h; microsomal CLint [8]: 7 µL/min/mg; half-life [11]: 3.45 h; microsomal CLint [9]: 8 µL/min/mg
22 | COc1ccc(-c2ccsc2C)cc1S(=O)(=O)NC1CCCC1 | inactive | inactive | inactive | 
23 | COc1ccc(-c2ccsc2)cc1S(=O)(=O)NC1CCCC1 | inactive | inactive | inactive | 
24 | Cc1ccc(-c2nnn(C)n2)cc1S(=O)(=O)NC1CCCC1 | inactive | inactive | inactive | 
25 | Cc1ccc(-c2c(C)noc2C)cc1S(=O)(=O)NC1CCCC1 | Active | Active | Active | half-life [6]: 0.0667 h; microsomal CLint [7]: 461 µL/min/mg; half-life [10]: 0.117 h; microsomal CLint [8]: 246 µL/min/mg; half-life [11]: 0.0333 h; microsomal CLint [9]: 711 µL/min/mg
26 | COc1ccc(-c2c(C)nn(C)c2C)cc1S(=O)(=O)NC1CCCC1 | inactive | inactive | inactive | 
27 | COc1ccc(-c2ccc(N)nc2)cc1S(=O)(=O)NC1CCCC1 | inactive | inactive | inactive | 
28 | Cc1ccc(-n2c(C)nnc2C)cc1S(=O)(=O)NC1CCCC1 | inactive | inactive | inactive | IC50 [4]: ≥ 10 µM; IC50 [5]: ≥ 10 µM; half-life [6]: 1.42 h; microsomal CLint [7]: 20 µL/min/mg; half-life [10]: 2.88 h; microsomal CLint [8]: 10 µL/min/mg; half-life [11]: 1.78 h; microsomal CLint [9]: 16 µL/min/mg
29 | COc1ccc(-c2cc[n+]([O-])cc2)cc1S(=O)(=O)NC1CCCC1 | inactive | inactive | inactive | 
30 | COc1ccc(-c2cccc(N)c2C)cc1S(=O)(=O)NC1CCCC1 | inactive | inactive | inactive | 
31 | COc1ccc(-c2ccnn2C)cc1S(=O)(=O)NC1CCCC1 | Active | Active | Active | IC50 [4]: 1.71 µM; IC50 [5]: 10.1 µM
32 | COc1ccc(-c2ccc(N)[n+]([O-])c2C)cc1S(=O)(=O)NC1CCCC1 |  | Active | Active | 
33 | COc1ccc(-c2c(C)n[nH]c2C)cc1S(=O)(=O)NC1CCCC1 | Active | Active | Active | IC50 [4]: 1.32 µM; IC50 [5]: 2.89 µM
